Measurements reported in patent publication US20070174926A1, “Sperm factor oscillogenin” (priority 2000, published 2007).
“Also recorded” adds a separate entry of the source. Marks after values point to notes of the source that are not given here.

What was measured:
IP3R-1 = test: Western blot quantification of IP3R-1 immunoreactivity in mouse eggs; type: cell-based; settings: for IP3R-1 down-regulation (degradation): activation started 16 hr phCG, band intensity relative to MII eggs
Source text: (§1) Several commonly used parthenogenetic agents were used during the course of these studies, including ethanol and ionomycin, which induce a single [Ca^2+]i rise (Cuthbertson, J. Exp. Zool. 226: 311-14 (1983); and Shiina et al., J. Reprod. Fert 97: 143-50 (1993)), and others such as adenophostin A, SF, thimerosal, and SrCl2 that evoke [Ca^2+]i oscillations (Kline et al., Dev. Biol. 149: 80-9 (1992); Swann, Biochem J. 287: 79-84 (1992); and Sato et al., Biol. Reprod. 58: 867-73 (1998)). The activating compounds were either injected into eggs (e.g., adenophostin A and SF, see microinjection procedures for details) or added to the eggs' culture media (e.g., thimerosal, SrCl2). Activation was started in all cases at 16 hr post hCG administration (phCG) and eggs evaluated visually 2 hr later by observing second polar body extrusion (18 hr phCG) and 5 hr post-treatment by evaluation of pronuclear formation. After the activation procedure and the assigned incubation period (1, 2, 4 or 8 hr), eggs were collected in 5 μl Dulbecco's phosphate buffered solution (DPBS)/polyvinylpyrrolidone (3 mg/ml, PVP) and stored at −80° C.
(§2) Ethanol activation was carried out by exposing eggs to a 7% ethanol solution in TL-Hepes plus 3 mg/ml bovine serum albumin (BSA) for 5 min at 37° C. After the treatment, eggs were washed several times in TL-Hepes, and cultured for 8 hr (24 hr-phCG). Activation with ionomycin and 6-dimethylaminopurine (DMAP), a kinase inhibitor (Susko-Parrish et al., Dev. Biol. 166: 729-39 (1994)) was accomplished by incubating eggs with 5 μM ionomycin for 5 min in Ca^2+ free-DPBS plus 3 mg/ml BSA. Eggs were then washed in TL-Hepes/1 mg/ml BSA, placed in DMAP/KSOM (2 mM) for 4 hr and cultured for 4 hr after carefuilly washing them free of DMAP. Eggs activated with SrCl2 were incubated for 2 or 4 hr in a Ca^2+-free M-16-like medium supplemented with 10 mM SrCl2. The treated eggs were then washed in TL-Hepes supplemented with 5% FCS and cultured for 2, 4 or 6 hr, depending on the experiment. For thimerosal activation, eggs were exposed to freshly made solutions of 200 μM thimerosal in KSOM for 30 min. Thimerosal-treated eggs were washed free of the reagent using TL-Hepes supplemented with 5% FCS and incubated for 30 min, 1.5, 3.5 or 7.5 hr.
Lactacystin (100 μM; Calbiochem, La Jolla, Calif.), a proteasome inhibitor (Mellgren, J. Biol. Chem. 272: 29899-903 (1997); and Fenteany et al., J. Biol. Chem. 273: 8545-48 (1998)), was used to determine if the proteasome was involved in down-regulation of the IP3R-1 by SF. Eggs were incubated in the inhibitor for 30 min. prior to injections, and injections of SF were carried out in the presence of the inhibitor. Eggs were then cultured in a new drop of KSOM freshly supplemented with lactacystin for 2 hr.
Equal volumes of crude lysates from 15 or 20 mouse eggs and double strength sample buffer (Laemmli, Nature 227: 680-5 (1970)) were combined as previously described (He et al., Biol. Reprod. 57: 1245-55 (1997)). Samples were boiled for 3 min and loaded into a 4% SDS-polyacrylamide gels. The separated proteins were transferred onto nitrocellulose membranes (Micron Separation; Westboro, Mass.) using a Mini Trans Blot Cell (Bio-Rad; Hercules, Calif.) for 2 hr at 4° C. The membranes were first washed in PBS and 0.05% Tween (PBS-T) and then blocked in 6% nonfat dry milk in PBS-T for 1 hr. […]

mouse eggs [1] = test: [Ca2+]i monitoring in fura-2 D loaded mouse eggs after agonist injection or exposure; type: cell-based; settings: for Frequency of [Ca2+]i rises, in words: SF and adenophostin A compared with fertilization, p<0.05; for Amplitude of 1st rise / Amplitude of 3rd rise: [Ca2+]i; for Amplitude of 1st rise / Amplitude of 3rd rise / # of rises in 5 min / Duration of 1st rise / Duration of 3rd rise: mean ± SEM; for # of rises in 5 min: frequency during 5 min after return of first rise to baseline (Adenophostin A, SF) or after addition (SrCl2, thimerosal)
Method: Microinjection procedures were carried out as previously described (Wu et al., Dev. Biol. 203: 369-81 (1998)). Briefly, eggs were placed in a 50 μl microdrop of TL-Hepes supplemented with 2.5% sucrose and 20% FCS under paraffin oil and injected using manipulators (Narishige, Medical Systems Corp., Great Neck, N.Y.) mounted on a Nikon Diaphot microscope (Nikon, Inc., Garden City, N.Y.). Injection pipettes were loaded by suction from a 2-3 μl drop containing one of the following compounds: 0.5 mM fura-2 dextran (fura-2 D; […] K. Tanzawa, Sankyo Colo., Tokyo, Japan). All reagents were diluted in buffer containing 75 mM KCl and 20 mM HEPES, pH 7.0 and were delivered into the ooplasm by pneumatic pressure using a PLI-100 picoinjector (Medical Systems Corp.). […] Wu et al., 1998), and 100 nM for adenophostin A. […] Exp. Zool. 226: 311-14 (1983); and […] et al., J. Reprod. […] Swann, Biochem J. 287: 79-84 (1992); and Sato et al., Biol. Reprod. 58: 867-73 (1998)). […] Activation was started in all cases at 16 hr post hCG administration (phCG) and eggs evaluated visually 2 hr later by observing second polar body extrusion (18 hr phCG) and 5 hr post-treatment by evaluation of pronuclear formation. After the activation procedure and the assigned incubation period (1, 2, 4 or 8 hr), eggs were collected in 5 μl Dulbecco's phosphate buffered solution (DPBS)/polyvinylpyrrolidone (3 mg/ml, PVP) and stored at -80° C. […] Ethanol activation was carried out by exposing eggs to a 7% ethanol solution in TL-Hepes plus 3 mg/ml bovine serum albumin (BSA) for 5 min at 37° C. After the treatment, eggs were washed several times in TL-Hepes, and cultured for 8 hr (24 hr-phCG). […] Biol. 166: 729-39 (1994)) was accomplished by incubating eggs with 5 μM ionomycin for 5 min in Ca^2+ free-DPBS plus 3 mg/ml BSA. Eggs were then washed in TL-Hepes/1 mg/ml BSA, placed in DMAP/KSOM (2 mM) for 4 hr and cultured for 4 hr after carefuilly washing them free of DMAP. Eggs activated with SrCl2 were incubated for 2 or 4 hr in a Ca^2+-free M-16-like medium supplemented with 10 mM SrCl2. The treated eggs were then washed in TL-Hepes supplemented with 5% FCS and cultured for 2, 4 or 6 hr, depending on the experiment. […] Fluorescence Recordings and [Ca^2+]i Determinations Monitoring of [Ca^2+]i levels using fura-2 D loaded eggs was carried out as previously described (Wu et al., 1998). UV illumination was provided by a 75 watt xenon arc lamp, and 340 and 380 nm excitation wavelengths were utilized. The intensity of the UV light was attenuated 32-fold with neutral density filters, and a photomultiplier tube quantified the emitted light after passing through a 500 nm barrier filter. The fluorescence signal was averaged for the whole egg. A modified Phoscan 3.0 software program run on a 486 IBM-compatible system controlled the rotation of the filter wheel and shutter apparatus to alternate wavelengths. Free [Ca^2+]i was determined from the 340 nm/380 nm ratio of fluorescence. Rmin and Rmax were calculated using […] fura-2 D in Ca^2+-free DPBS supplemented with 2 mM EDTA (Rmin) or 2 mM CaCl2 (Rmax) and with 60% sucrose to correct for intracellular viscosity (Grynkiewicz et al., J. Biol. Chem. 260: 3440-50 (1985); and Poenie, Cell Calcium 11: 85-91 (1990)). The same solutions were also used alone for background subtractions. Ca^2+ measurements carried out in the presence of extracellular SrCl2 are presented as fluorescence ratios of the 340 nm/380 nm excitation wavelengths. Calculations of the [Ca^2+]i concentration was in this case not performed, since fura-2 has also some affinity for Sr^2+. The presence of intracellular Sr^2+ therefore interferes and prevents obtaining […] and/or Sr2+ intracellular concentrations (Hajnoczky et al., EMBO J., 16: 3533-43 (1997)). Eggs were measured individually in 35 μl drops of TL-Hepes medium placed on a glass coverslip on the bottom of a plastic culture dish under paraffin oil. […]

IP3R = settings: full IP3R agonist; cited from earlier work
mouse eggs [2] = test: Parthenogenetic activation of mouse eggs (second polar body extrusion, pronuclear formation); type: cell-based; settings: for Egg activation: result in words
Source text: as §1
as §2, with “For thimerosal activation, eggs were exposed to freshly made solutions of 200 μM thimerosal in KSOM for 30 min. Thimerosal-treated eggs were washed free of the reagent using TL-Hepes supplemented with 5% FCS and incubated for 30 min, 1.5, 3.5 or 7.5 hr.” left out

Row | SMILES | IP3R-1 down-regulation (degradation) (IP3R-1) | Frequency of [Ca2+]i rises, in words (mouse eggs [1]) | Amplitude of 1st rise (mouse eggs [1]) | Amplitude of 3rd rise (mouse eggs [1]) | # of rises in 5 min (mouse eggs [1]) | Duration of 1st rise (mouse eggs [1]) | Duration of 3rd rise (mouse eggs [1]) | Potency relative to IP3 (IP3R) | Egg activation (mouse eggs [2]) | Cell cycle progression assessed by extrusion of the polar body in SF-injected eggs (mouse eggs [2]; eggs pretreated and incubated with inhibitor, not shown) | Effect on SF-induced degradation of IP3R-1 (IP3R-1; 100 μM inhibitor, 30 min preincubation, 2 hr after SF injection)
1 | Nc1ncnc2c1ncn2[C@@H]1O[C@H](CO)[C@@H](O[C@H]2O[C@H](CO)[C@@H](OP(=O)(O)O)[C@H](OP(=O)(O)O)[C@H]2O)[C@H]1OP(=O)(O)O [Adenophostin A, adenophostin A] | significant down-regulation; also recorded: near total down-regulation | higher frequency | 620 ± 30^a, b nM | 530 ± 100^a nM | 3.9 ± 1.5^a*,* | 260 ± 65^a sec | 70 ± 22^a sec | approximately 100 fold | – | – | –
2 | [Cl-].[Cl-].[Sr+2] [SrCl2] | failed to induce any changes | lower frequency | – | – | 1 ± 0.0^b | 740 ± 290^b sec | 360 ± 70^b sec | – | high rates of egg activation | – | –
3 | C[CH2][Hg][S]c1ccccc1C(=O)[O-].[Na+] [Thimerosal, thimerosal] | rapid and sustained down-regulation | low frequency | 330 ± 30^b nM | 640 ± 90^a nM | 1 ± 0.4^b | 180 ± 44^a sec | 70 ± 16^a sec | – | – | – | –
4 | CCO [ethanol] | does not induce down regulation of IP3R-1 | – | – | – | – | – | – | – | high rates of activation | – | –
5 | CC(=O)N[C@@H](CSC(=O)[C@]1([C@@H](O)C(C)C)NC(=O)[C@H](C)[C@@H]1O)C(=O)O [lactacystin] | – | – | – | – | – | – | – | – | – | clearly delayed | markedly inhibited
